What is called IC50 is the concentration that inhibits the measured activity by half.

Read-outs that look alike come from different tables or passages of the source. Numbered stars: 1 amine (or outer) side, 2 acyl side, 3 side chain; on linkers, the order of the positions; unused ones are H or OH. Bridge positions count the residues as written; N and C are the ends. Side chains are listed from the residue outwards. Peptide text beside a SMILES is read from it. * marks the point of attachment. C20 diacid = O=C(O)CCCCCCCCCCCCCCCCCCC(=O)*; γGlu = O=C(O)[C@H](CCC(=O)[*:2])N[*:1]

The subject of data set [1] is Sprague Dawley (SD) rats. Description: ASSAY (I) efficacy testing on appetite (food intake) using an ad libitum fed rat model. In kind it is in vivo. The note with it: rat, 30 nmol/kg. A digest of the protocol:
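Ad libitum fed SD rats (200–250 g) were housed singly on a reversed light/dark cycle and given one 0.01–3 mg/kg dose ip, po or sc just before lights-off, with 5–8 per dose group plus vehicle controls. Food intake was recorded hourly for 7 h, then at 24 h and sometimes 48 h; Grubbs outliers were excluded.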

The nature of data set [2]: ASSAY (IV) determination of solubility. The class given is physicochemical. A digest of the protocol: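 Polypeptide in water at […] mixed 1:1 with 100 mM buffers of pH 3.0-8.0 (glycylglycine pH 3-5, bistrispropane pH 6-8). Held 18 h at room temperature, then centrifuged; concentration remaining in solution measured by UPLC.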
The target in data set [3] is T1, rat calcitonin receptor (Rattus norvegicus, UniProt P32214).
T1 construct: expressed in transfected cells; host or cells: BHK tk'ts 13 (transient, FuGENE 6), membranes
T1 sequence (P32214 25-479 isoform P32214-2 limits assumed): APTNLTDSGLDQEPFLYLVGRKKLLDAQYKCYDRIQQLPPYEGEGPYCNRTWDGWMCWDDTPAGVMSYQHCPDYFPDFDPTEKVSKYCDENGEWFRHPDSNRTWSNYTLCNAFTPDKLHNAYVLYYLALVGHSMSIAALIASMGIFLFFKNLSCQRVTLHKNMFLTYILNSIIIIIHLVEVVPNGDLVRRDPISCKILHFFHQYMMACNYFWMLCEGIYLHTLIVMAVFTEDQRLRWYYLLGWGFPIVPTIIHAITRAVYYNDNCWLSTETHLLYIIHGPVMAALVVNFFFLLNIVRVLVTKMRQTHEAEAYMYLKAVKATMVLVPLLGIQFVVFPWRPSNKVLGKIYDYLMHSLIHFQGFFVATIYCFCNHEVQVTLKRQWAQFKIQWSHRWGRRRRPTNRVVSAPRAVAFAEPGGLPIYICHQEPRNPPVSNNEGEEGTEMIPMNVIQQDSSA
Description: ASSAY (VIII) binding to the rat calcitonin receptor. Particulars: Table 7, read-out: rCTR bind IC50. A digest of the protocol:
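Membranes were prepared from BHK tk′ts 13 cells transiently transfected with rat calcitonin receptor. Cells were grown in DMEM with 10% FBS and harvested approximately 48 hours after transfection.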

The target of data set [4] is T2, human amylin receptor (membranes from Amylin 3(a)/CRE-luc cells) (Homo sapiens, UniProt O60896+P30988).
T2 construct: expressed in transfected cells
T2 sequence (P30988 25-474): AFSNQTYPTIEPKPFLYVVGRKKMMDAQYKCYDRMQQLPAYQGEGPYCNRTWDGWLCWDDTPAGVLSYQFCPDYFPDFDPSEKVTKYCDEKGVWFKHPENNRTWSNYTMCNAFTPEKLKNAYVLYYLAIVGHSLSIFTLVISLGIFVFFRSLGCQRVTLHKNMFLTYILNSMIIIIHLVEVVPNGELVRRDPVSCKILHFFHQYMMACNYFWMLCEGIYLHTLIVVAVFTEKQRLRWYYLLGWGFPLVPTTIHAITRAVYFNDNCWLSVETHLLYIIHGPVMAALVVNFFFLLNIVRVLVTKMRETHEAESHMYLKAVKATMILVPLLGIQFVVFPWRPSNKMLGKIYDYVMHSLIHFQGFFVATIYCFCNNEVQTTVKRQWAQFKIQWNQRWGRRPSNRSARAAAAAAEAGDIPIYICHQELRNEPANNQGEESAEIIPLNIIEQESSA
T2 sequence (O60896 24-148 partner): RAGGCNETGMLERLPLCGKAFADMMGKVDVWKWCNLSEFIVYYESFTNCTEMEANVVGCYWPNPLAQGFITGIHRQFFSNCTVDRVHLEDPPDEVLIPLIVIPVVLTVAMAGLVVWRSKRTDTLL
Description: ASSAY (V) binding to the human amylin receptor (SPA, 125I-rat amylin).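 Further: competition binding of cell membranes (35 ng/µL) mixed with SPA beads in 384-well plates at 40 µL total volume, read by scintillation counting.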

With `CC[C@H](C)[C@H](NC(=O)[C@H](C)NC(=O)CNC(=O)[C@H](Cc1ccccc1)NC(=O)[C@H](CC(N)=O)NC(=O)[C@@H]1CCCN1C(=O)[C@H](CO)NC(=O)[C@H](CO)NC(=O)[C@H](Cc1c[nH]cn1)NC(=O)[C@H](CCCNC(=N)N)NC(=O)[C@H](CC(C)C)NC(=O)[C@H](Cc1ccccc1)NC(=O)[C@H](CO)NC(=O)[C@H](C)NC(=O)[C@H](CC(C)C)NC(=O)[C@H](CCCNC(=N)N)NC(=O)[C@H](CCC(N)=O)NC(=O)[C@@H](NC(=O)[C@H](C)NC(=O)[C@@H]1CSSC[C@H](NC(=O)[C@@H](N)CCCCNC(=O)CC[C@H](NC(=O)CC[C@H](NC(=O)CCCCCCCCCCCCCCCCCCC(=O)O)C(=O)O)C(=O)O)C(=O)N[C@@H](CC(N)=O)C(=O)N[C@@H]([C@@H](C)O)C(=O)N[C@@H](C)C(=O)N[C@@H]([C@@H](C)O)C(=O)N1)[C@@H](C)O)C(=O)N1CCC[C@H]1C(=O)N[C@@H](CO)C(=O)N[C@@H](CO)C(=O)N[C@H](C(=O)N[C@@H](CC(N)=O)C(=O)N[C@H](C(=O)NCC(=O)N1CCC[C@H]1C(=O)N[C@@H](CCC(=O)O)C(=O)N[C@H](C(=O)N[C@@H](Cc1ccc(O)cc1)C(N)=O)[C@@H](C)O)C(C)C)[C@@H](C)O` [Example 120] (H-K([γGlu-γGlu-C20 diacid])CNTATCATQRLASFLRHSSPNFGAIPSSTNVGPETY-NH2; disulfide 2-7 (inferred); N-terminus assumed), in data set [1] (0-24 h), the “Food intake reduction 0-24 h 30 nmol/kg (%)” value turned out to be 66%. In addition, the “Food intake reduction 24-48 h 30 nmol/kg (%)” value in data set [1] (24-48 h) is given as 61%. The solubility at 18 h in data set [2] (bistrispropane buffer, pH 6.5, read-out: Solubility pH 6.5 Concentration) is no less than 200 µM; in data set [2] (bistrispropane buffer, pH 7.5, read-out: Solubility pH 7.5 Concentration), no less than 200 µM; in data set [2] (bistrispropane buffer, pH 6.0, read-out: Solubility pH 6.0 Concentration) it was no less than 200 µM; in data set [2] (bistrispropane buffer, pH 7.0, read-out: Solubility pH 7.0 Concentration), no less than 200 µM; in data set [2] (bistrispropane buffer, pH 8.0, read-out: Solubility pH 8.0 Concentration) it was no less than 200 µM; in data set [2] (glycylglycine buffer, pH 3.0, read-out: Solubility pH 3.0 Concentration) it was no less than 200 µM. The solubility at 18 h in data set [2] (glycylglycine buffer, pH 4.0, read-out: Solubility pH 4.0 Concentration) is no less than 200 µM; in data set [2] (glycylglycine buffer, pH 5.0, read-out: Solubility pH 5.0 Concentration) it was no less than 200 µM. Moreover, the IC50 in data set [3] was 140 nM; in data set [4] (Table 4, read-out: hAmylin-R bind IC50) it was 0.076 nM. The “Ratio hCT/hAmylin binding” value is 45.3 in data set [4] (Table 5, selectivity, hCTR bind IC50 / hAmylin-R bind IC50); 45.3 in data set [4] (Table 5a, selectivity, hCTR bind IC50 / hAmylin-R bind IC50); 45.3 in data set [4] (Table 5b, selectivity, hCTR bind IC50 / hAmylin-R bind IC50); 45.3 in data set [4] (Table 5c, selectivity, hCTR bind IC50 / hAmylin-R bind IC50); 45.3 in data set [4] (Table 7, human binding selectivity, included for comparison); 45.3 in data set [4] (Table 7a (preferred compounds), human binding selectivity, included for comparison). For the same molecule, in data set [4] (ratio of human calcitonin receptor binding IC50 to human amylin receptor binding IC50), the “Ratio hCT/hAmylin binding” value is recorded as 45.3.

The values above are taken from US9023789B2, “Amylin analogs and pharmaceutical compositions thereof” (Novo Nordisk A/S, priority 2012, dated 2015).
